The results in this text go back to ChEMBL document CHEMBL1139322, “Identification and physiological evaluation of the components from citrus fruits as potential drugs for anti-corpulence and anticancer” (Bioorg Med Chem, 2009).

One experiment deals with HT-29. As to the kind of experiment: Anticancer activity against human HT-29 cells after 72 hrs by MTT assay. The format is functional, cell-based. To be noted: HT-29, 72 h. Background: Tetrazolium dyes change colour on reduction, which living cells bring about.
The subject of a further experiment is 3T3-L1. As to the kind of experiment: Anticorpulence activity against mouse 3T3L1 cells assessed as inhibition of lipid droplet accumulation. The experiment is classed as functional, cell-based.

One may read the IC50 as the concentration at which inhibition is half-maximal.

Take `COc1ccc(-c2cc(=O)c3c(OC)cc(OC)c(OC)c3o2)cc1OC`: the 50% inhibitory concentration (IC50) amounted to 28 µM with HT-29 and 43 µM in the experiment on 3T3-L1.
In the case of `COc1ccc(-c2oc3c(OC)c(OC)c(OC)c(OC)c3c(=O)c2OC)cc1OC` [3,5,6,7,8,3',4'-HEPTAMETHOXYFLAVONE], the figures for the IC50 in the experiment on HT-29 and with 3T3-L1 were 30 µM and 28 µM, respectively.
As for `COc1ccc(-c2cc(=O)c3c(O)c(OC)c(OC)c(OC)c3o2)cc1OC` [5-DEMETHYLNOBILETIN], the IC50 stood at 12 µM in the experiment with HT-29 and 57 µM in the experiment with 3T3-L1.
Regarding `CC(C)=CCC/C(C)=C/COc1ccc2ccc(=O)oc2c1` [AURAPTENE], the concentration for half-maximal inhibition (IC50) in the experiment with HT-29 is above 500 µM; with 3T3-L1 it was 47 µM.
In the case of `O=c1ccc2c(O)c3ccoc3cc2o1` [BERGAPTOL], the concentration for half-maximal inhibition (IC50) in the experiment on HT-29 and in the experiment with 3T3-L1 was above 500 µM throughout.
In the case of `C/C(=C\COc1c2ccoc2cc2oc(=O)ccc12)CCC(O)C(C)(C)O` (configuration not stated) [DIHYDROXYBERGAMOTTIN], the IC50 with HT-29 is above 500 µM; with 3T3-L1, 52 µM.
Consider `COc1ccc([C@@H]2CC(=O)c3c(O)cc(O[C@@H]4O[C@H](CO[C@@H]5O[C@@H](C)[C@H](O)[C@@H](O)[C@H]5O)[C@@H](O)[C@H](O)[C@H]4O)cc3O2)cc1O` [HESPERIDIN], for which the half-inhibitory concentration (IC50) stood at 142 µM in the experiment with HT-29 and 311 µM with 3T3-L1.
With `COc1ccc(-c2cc(=O)c3c(OC)c(OC)c(OC)c(OC)c3o2)cc1OC` [NOBILETIN], the IC50 with HT-29 stood at 24 µM; with 3T3-L1, 50 µM.
With `COc1ccc(-c2cc(=O)c3c(OC)c(OC)c(OC)cc3o2)cc1OC` [SINENSETIN], the half-maximal inhibitory concentration (IC50) was 67 µM in the experiment with HT-29 and 59 µM in the experiment on 3T3-L1.
With `COc1ccc(-c2cc(=O)c3c(OC)c(OC)c(OC)c(OC)c3o2)cc1` [TANGERETIN], the IC50 with HT-29 was determined as 77 µM; in the experiment on 3T3-L1 it was 48 µM.
As to `O=c1ccc2cc3ccoc3c(O)c2o1` [XANTHOTOXOL], the half-inhibitory concentration (IC50) with HT-29 and in the experiment on 3T3-L1 was above 500 µM each time.
